Reference: patent US20260035345A1 (Lento Bio, Inc., priority 2023, published 2026)
≈ marks a conversion by molar mass, not a printed value. Like-named read-outs stand apart in the source and are kept apart here. Non-standard residues stand in square brackets, D forms with d. Residues, ends and D or L forms follow the SMILES beside them. Aib = CC(C)(N)C(=O)O

Experiments:
[1] = test system: ocular lenses from 8-month-old C57BL/6 mice; test: Ex vivo lens stiffness screen, single-point variant of the coverslip method; set-up: species or system mouse; details: 20 mM; for Avg. % Compress.: lenses incubated 12 hours at 37° C., 588.0 mg coverslip weight
Experimental: An ex vivo screen was conducted to evaluate the effect of multiple compounds on lens stiffness using a more efficient variant of the coverslip method (Cheng, et al., J. Vis. Exp., 111: 53986 (2016). Our variant uses a single measurement point to enable multidrug screening, utilizing a weight deemed optimal based on coverslip quantity-response curves. Previously dissected and frozen eyes from 8-month-old C57BL/6 mice were thawed, and the ocular lenses were removed via micro-dissection. Next, intact ocular lenses were immersed and incubated in test compound solutions at various concentrations for 12 hours at 37° C. Individual washed lenses were placed into a divot in a solution-filled plexiglass measurement chamber, where uncompressed axial diameter was assessed. Then 3 glass coverslips glued together, with a total weight of 588.0 mg, were placed on top of the lens, and the axial diameter was remeasured. Change in lens stiffness was calculated as the ratio between the axial diameter of compressed lens to the axial diameter of the unweighted lens (compressed/uncompressed), with higher ratios indicative of more flexibility. To address an important limitation with ex vivo lens treatment (that lens stiffness increases over time, by default, when the lens is removed from the eye post-mortem), we compared treatment with NAC to freshly dissected 8-month lenses and observed natural stiffening occurred during the 12-hour incubation period (10.34% mean compression, n=10).

[2] = Maximum soluble concentration in artificial tears; type: physicochemical; details: saline or isotonic
[3] = test system: Two-month-old C57BL/6 mice; test: Toxicology and dosing optimization in mice, 1 week of eyedrops (Example 5); type: in vivo, mouse
Experimental: A study was conducted to assess the maximum tolerable dose of N-(2-fluoro-2-methyl-1-propylcarbonyl)-cysteine (and its S-acetylated counterpart, N-(2-fluoro-2-methyl-1-propylcarbonyl)-S-acetylcysteine for lens stiffness reduction and to assess via histology whether any safety issues arose from 1 week of treatment with these compounds, particularly in the lens and cornea.
Two-month-old C57BL/6 mice were treated 2×/day with treatment compounds (see sample groups (n=5) and concentrations below). Animals were assessed for itching and scratching/blinking after dosing, hyperemia, lid swelling, discharge, and squinting, all on a scale of 1-4. Those scoring were blinded to treatment groups. Following euthanasia eyes were fixed and stained with H+E, and corneal and lens anatomy in the two highest concentration groups considered tolerable were assessed.

[4] = test system: Eight-month-old C57BL/6 mice; test: One-month eyedrop tolerability and histology in the aqueous humor study; type: in vivo; details: 100 mM eyedrops 2×/day for 1 month
Experimental: (§1) Eight-month-old C57BL/6 mice were given […] eyedrops of 100 mM N-(2-fluoro-2-methyl-1-propylcarbonyl)-cysteine, 100 mM N-pivaloylcysteine, or 100 mM NAC for 1 month at 2×/day. 10 mice were present in each group. […] Safety via histology was positive.

[5] = Aqueous humor LC/MS concentration comparison (corneal penetration); type: in vivo, mouse; details: 100 mM eyedrops 2×/day for 1 month; for concentration at 1 h: C57BL/6, mouse, aqueous humor, topical
Experimental: A study was conducted to assess the degree to which N-(2-fluoro-2-methyl-1-propylcarbonyl)-cysteine penetrated the mouse cornea, as compared to NAC and N-pivaloylcysteine.
as §1
On the final day aqueous humor was drawn from the eyes (average of 1-5 μL extracted) 1 hour after final dose, and the concentration of each compound quantified via LC/MS (column: Atlantis T3, 100×2.1 mm, 5 μm; mobile phases: A: Water/Formic Acid (1000/5, v/v), B: Acetonitrile/Methanol/Formic Acid (50/50/0.3, v/v/v).

[6] = test system: lens stiffness in 7-month-old C57BL/6 mice; test: In vivo efficacy: lens stiffness after eyedrop treatment (Example 4); set-up: species or system mouse; details: for average total compression: eyedrops, 28-day treatment, fluoro compound 200 mM, LACE 1.5% (PBS vehicle); for lens stiffness versus vehicle treated mice: fluoro compound 200 mM (also versus LACE), LACE 1.5%
Experimental: Rationale and goal: To determine the effect of N-acetylcysteine (NAC) and its variants on reducing lenses stiffness in vivo.
The following sample groups were tested in 7-month-old C57BL/6 mice: vehicle (artificial tears)(40 mice), N-acetylcysteine 20 mM (20 mice), N-(2-fluoro-2-methyl-1-propylcarbonyl)-cysteine 200 mM (10 mice), LACE (lipoic acid choline ester) 1.5% (PBS vehicle) (10 mice), 2-month-old mice (untreated) (7 mice).
Vehicle-treated mice averaged 199.34 micrometers total compression (std. dev 32.16). […] Mice treated with LACE averaged 209.68 micrometers total compression (std. dev 28.16).

[7] = test system: lens stiffness in 7-month-old C57BL/6 mice; test: Initial in vivo lens stiffness test with NAC eyedrops for one month; set-up: species or system mouse
Experimental: An initial in vivo test was conducted on NAC utilizing 7-month-old C57BL/6 mice subsequently treated for one month 2×/day with both 100 mM and 20 mM NAC eyedrops (artificial tears was used as the vehicle). During the last day, animals were sacrificed, eyes enucleated, and lenses were removed. Lens stiffness was measured by the same assay as ex vivo, with measurements taken within 5-10 minutes of lens removal. Both a 588 mg and 1047 mg weight were used in the assay.

aged mouse lenses = details: background statement; cited from earlier work
[8] = test system: ocular lenses from 8-month-old C57BL/6 mice; test: Ex vivo lens stiffness screen, single-point variant of the coverslip method; set-up: species or system mouse; details: 1-hour of incubation with NAC
[9] = listed as N-(2-fluoro-2-methyl-1-oxopropyl)-cysteine
[10] = drawn 1 hour after final dose, LC/MS

CC(C)(F)C(=O)N[C@@H](CS)C(=O)O [listing 1 of 2 here]
improvement over NAC in ex vivo lens stiffness [1, 9]: significant improvement | rank of improvement among tested derivatives, ex vivo lens stiffness [1, 9]: highest mean significance as well as the highest significance vs vehicle

CC(=O)SCC(NC(=O)C(C)(C)F)C(=O)O (stereo not drawn)
solubility ([2]; artificial tears, read-out: maximum soluble concentration in artificial tears): 300 mM (≈ 75.4 mg/mL)

CC(C)(F)C(=O)N[C@@H](CS)C(=O)O [listing 2 of 2 here]
rank of improvement among tested derivatives, ex vivo lens stiffness [1]: superior lens stiffness reducing efficacy | Avg. % Compress. [1]: 6.87% | solubility [2]: 200 mM (≈ 41.8 mg/mL) | tolerability ([3]; 200 mM, 2×/day for 1 week): tolerable | Histology of treated lenses ([3]; mouse, in vivo): entirely normal | Safety via histology [4]: positive | increase of tolerability issues including blinking or hyperemia over time [4]: No noticeable increase | aqueous humor concentration and corneal penetration over NAC and N-pivaloylcysteine [5]: improved | concentration at 1 h [5, 10]: 47 µM | improvement over NAC in vivo ([6]; 200 mM vs N-acetylcysteine 20 mM): significant improvement | lens stiffness lost to aging from 2-8 months restored ([6]; 200 mM, relative to 2-month-old untreated mice and 8-month vehicle): 67.9% | average total compression [6]: 281.05 micrometers | lens stiffness versus vehicle treated mice [6]: significantly reduced

CC(=O)N[C@H](CS)C(=O)O [N-acetyl-D-cysteine]
improvement versus vehicle (lens stiffness) ([7]; a later study, conditions not given): significant improvement versus vehicle but at a reduced power versus NAC

COC(C)(C)C(=O)N[C@@H](CS)C(=O)O
Avg. % Compress. [1]: 6.38%

O=C(N[C@@H](CS)C(=O)O)C1CC1 [N-cyclopropylcarbonyl-cysteine]
Avg. % Compress. [1]: 6.02%

C[N+](C)(C)CCOC(=O)CCCC[C@@H]1CCSS1 [LACE, Lipoic acid choline ester, reference compound]
average total compression [6]: 209.68 micrometers | lens stiffness versus vehicle treated mice [6]: did not significantly improve

CC(C)(N)C(=O)N[C@@H](CS)C(=O)O (H-[Aib]-Cys-OH)
Avg. % Compress. [1]: 5.68%

O=C(N[C@@H](CS)C(=O)O)c1ccccc1 [N-phenylcarbonyl-cysteine]
Avg. % Compress. [1]: 5.98%

CC(C)(C(=O)N[C@@H](CS)C(=O)O)c1ccccc1
Avg. % Compress. [1]: 6.18%

CC(=O)N[C@@H](CSC(C)=O)C(=O)O [S,N-diacetylcysteine]
lens stiffness in ex vivo treated aged mouse lenses (aged mouse lenses): reduces lens stiffness

CC(C)C(=O)N[C@@H](CS)C(=O)O [N-(isopropylcarbonyl)-cysteine]
Avg. % Compress. [1]: 6.71%

O=C(Cc1ccccc1)N[C@@H](CS)C(=O)O [N-benzylcarbonyl-cysteine]
Avg. % Compress. [1]: 4.38%

CCCCCC(=O)N[C@@H](CS)C(=O)O [N-(n-pentylcarbonyl)-cysteine]
Avg. % Compress. [1]: 4.31%

CN(C)C(=O)N[C@@H](CS)C(=O)O [N-dimethylaminocarbonyl-cysteine]
Avg. % Compress. [1]: 4.19%

CC(=O)N[C@@H](CS)C(=O)O [N-acetyl-cysteine, reference compound]
Avg. % Compress. [1]: 5.76% | lens stiffness compared to untreated (vehicle) control lenses ([1]; ex vivo screen): significantly improved | improvement in lens stiffness over vehicle ([7]; 20 mM eyedrops 2×/day for one month): minor and insignificant improvement | improvement in lens stiffness over vehicle ([7]; 100 mM eyedrops 2×/day for one month, 588 mg and 1047 mg weights): significant improvement | improvement of lens stiffness compared to vehicle [8]: 2.07% | aqueous humor concentration [5, 10]: 17 out of 20 samples falling below the limit of detection

CCC(C)(C)C(=O)N[C@@H](CS)C(=O)O
Avg. % Compress. [1]: 6.29%

CC(C)(C)C(=O)N[C@@H](CS)C(=O)O [N-pivaloylcysteine, N-(2,2-dimethyl-1-oxopropyl)-cysteine]
improvement over NAC in ex vivo lens stiffness [1]: significant improvement | rank of improvement among tested derivatives, ex vivo lens stiffness [1]: largest improvement | Avg. % Compress. [1]: 6.82% | Safety via histology [4]: positive | increase of tolerability issues including blinking or hyperemia over time [4]: No noticeable increase | concentration at 1 h [5, 10]: 38 µM
